Assay [1] concerns rat model of traumatic brain injury. Details: method as in Massa et al., 2010. To be noted: ref Massa et al., 2010; cited from earlier work.
The test system of the next assay is Het mice. Also noted: method as in Li et al., 2017. To be noted: long-term treatment of Het mice; ref Li et al., 2017; cited from earlier work.
The subject of assay [2] is 3T3 parent line, which does not express Trk receptors. The experiment in a line: NIH-3T3 cell survival. In kind it is cell-based, mouse. To be noted: serum-free medium.
The test system of another assay is 3T3-TrkC cells. The assay can be described thus: NIH-3T3 cell survival (ViaLight). In kind it is cell-based, mouse. To be noted: serum-free medium, 72-96 h, PTX-BD4-3 1000 nM. As for the experimental part:
(§1) Fig. 2. PTX-BD4-3 promotes cell survival preferentially through TrkB. (A-D) Neurotrophin receptor-expressing NIH-3T3 cells were incubated in culture medium (CM) alone or in medium plus either the indicated neurotrophins (BDNF, NGF, NT-3) or PTX-BD4-3 or its parent compound LM22A-4 for 72-96 h, after which survival was measured using the ViaLight assay. […] Scale bar: 10 μm. (B) Survival dose-response curves for PTX-BD4-3 and LM22A-4 in 3T3-TrkB cells. ^§P≤0.001 compared to CM alone. (C) Representative images of 3T3-TrkA, 3T3-TrkC and 3T3-p75 cells grown in the presence of CM alone, CM+neurotrophin or CM+PTX-BD4-3. Scale bar: 10 μm. NGF, NT-3 and BDNF served as positive controls for 3T3-TrkA, 3T3-TrkC and 3T3-p75 cells, respectively. (D) PTX-BD4-3 (1000 nM) had no effect on survival of 3T3-TrkA, 3T3-TrkC or 3T3-p75 cells compared to medium alone. *P≤0.05, ***P≤0.001 compared to CM alone. For each determination in B and D, n=10-32 wells derived from four to five independent experiments. Statistical significance was determined by one-way ANOVA with Dunnett's post hoc multiple comparison test. (E,F) […] protein was extracted from human cementoblast-like cell (HCEM) cultures treated with either culture medium alone, BDNF, LM22A-4 or PTX-BD4-3, immunoprecipitated with anti-TrkB antibody and then probed sequentially on western blots with anti-Shc and anti-TrkB antibody. The ratio of Shc to TrkB in treated cultures was normalized and compared to control (CM alone) using Kruskal-Wallis ANOVA followed by Dunn's multiple comparisons test (*P≤0.05, ^§P≤0.001). n=13 independent experiments, and each protein sample was run on duplicate western blots and the normalized values averaged. RLUs, relative light units.
(§2) Mouse NIH-3T3 cells expressing TrkA (NIH-3T3-TrkA) were provided by Dr William Mobley (University of California at San Diego, San Diego, CA, USA), and NIH-3T3 cells expressing TrkB (NIH-3T3-TrkB) or TrkC (NIH-3T3-TrkC) were provided by Dr David Kaplan (University of Toronto, Toronto, ON, Canada). Cells were propagated in Dulbecco's modified Eagle medium (DMEM) supplemented with 10% fetal bovine serum (FBS; Invitrogen) and 200-400 µg/ml Geneticin. Cells were seeded into 24-well plates (30,000 cells/well) and cultured in medium consisting of 50% PBS and 50% DMEM without supplements. Following exposure to BDNF (20 ng/ml, 0.7 nM) or 10-1000 nM LM22A-4 or PTX-BD4-3 for 72-96 h, cells were suspended in 50 µl lysis buffer, transferred to white, opaque 96-well culture plates and survival was measured using the ViaLight Assay (Lonza Group, Rockland, ME, USA).

The subject of the next assay is 3T3-TrkA cells. The experiment in a line: NIH-3T3 cell survival (ViaLight). The class given is cell-based, mouse. To be noted: serum-free medium, 72-96 h, PTX-BD4-3 1000 nM. On the procedure:
as §1, §2

The test system of another assay is 3T3-p75 cells. The assay can be described thus: NIH-3T3 cell survival (ViaLight). The class given is cell-based, mouse. To be noted: serum-free medium, 72-96 h, PTX-BD4-3 1000 nM. On the procedure: as §1, §2
The test system of assay [3] is heterozygous (Het) female Mecp2 mutant mice. The assay can be described thus: Forelimb grip strength. In kind it is in vivo, mouse. To be noted: chronic intermittent 5 mg/kg q72 h. As for the experimental part: This improvement is consistent with previous reports of motor learning in response to repeated exposure to Rotarod testing ([Buitrago et al., 2004]). […] To investigate this possibility, we evaluated Rotarod performance in additional cohorts of animals that received chronic intermittent dosing with PTX-BD4-3 and only one exposure to Rotarod testing, at the end of the 8-week treatment period (Fig. 7A).
Fig. 7. […] (A) Repeated dosing with PTX-BD4-3 (5 mg/kg, q72 h) for 8 weeks had no impact on latency to fall in animals that were tested only at the end of the 8-week treatment period. Rotarod performance was measured over three successive trials, 24 h after the last dose. n=15-16 subjects derived from two independent experiments. (B) Het mice show no deficit in forelimb grip strength compared to Wt controls, and no increase in grip strength in response to treatment with PTX-BD4-3. n=9-20 subjects derived from two independent experiments. *P<0.05, **P<0.001 compared to saline-treated Wt mice. One-way ANOVA with LSD post hoc analysis. Black, saline-treated Wt mice; gray, saline-treated Het mice; red, PTX-BD4-3-treated Het mice.

Turning to `O=C(NCCO)c1cc(C(=O)NCCO)cc(C(=O)NCCO)c1` [LM22A-4, N,N′,N′′-tris(2-hydroxyethyl)-1,3,5-benzenetricarboxamide, reference compound], the motor learning entry in assay [1] is given as “improve motor learning”. Besides, in the assay on Het mice, the “behavioral learning in a spatial memory task” value is reported as “improves behavioral learning”.
Consider `COCCN(C)C(=O)c1cc(C(=O)N(C)CCOC)cc(C(=O)N(C)CCOC)c1` [PTX-BD4-3, benzene-1,3,5-tricarboxylic acid tris-[(2-methoxy-ethyl)-methyl-amide]], for which the “survival of the 3T3 parent line” value in assay [2] is “did not support survival”. Besides, the “survival of 3T3-TrkC cells” value with 3T3-TrkC cells was “no effect”. The “survival of 3T3-TrkA cells” value in the assay on 3T3-TrkA cells is “no effect”. Besides, the “survival of 3T3-p75 cells” value in the assay on 3T3-p75 cells is listed as “no effect”. For the same compound, in assay [3], the forelimb grip strength entry is on record as “no gain in grip strength”.
